Where a name gives a salt, the structure may show the parent alone.

The target of this test is T1, full length SGK1 (Homo sapiens, UniProt O00141).
T1 construct: 125 μM full length SGK1 (Life Technologies Part #PR7358A); purchased Life Technologies PR7358A
T1 sequence (O00141 1-431): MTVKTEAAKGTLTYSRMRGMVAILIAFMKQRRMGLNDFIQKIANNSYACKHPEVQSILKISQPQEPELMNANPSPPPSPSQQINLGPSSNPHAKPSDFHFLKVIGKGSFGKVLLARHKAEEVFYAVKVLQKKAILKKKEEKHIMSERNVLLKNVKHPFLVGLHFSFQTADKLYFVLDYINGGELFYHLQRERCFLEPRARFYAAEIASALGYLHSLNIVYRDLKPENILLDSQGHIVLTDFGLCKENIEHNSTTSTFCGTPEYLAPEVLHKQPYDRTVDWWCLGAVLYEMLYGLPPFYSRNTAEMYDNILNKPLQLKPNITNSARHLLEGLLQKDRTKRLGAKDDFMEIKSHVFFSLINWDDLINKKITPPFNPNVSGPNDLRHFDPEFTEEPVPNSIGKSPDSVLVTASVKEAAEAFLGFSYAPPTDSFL
Kind of test: SGK1 inhibition Assay A (Caliper LabChip electrophoretic separation of fluorescent peptide substrate and phosphorylated product). It counts as biochemical. The following applies: Assay A; 20 μM ATP, 40 min incubation; read-out: SGK1 IC50.
For orientation: IC50 means the point on the concentration scale where inhibition reaches its midpoint. In the case of `CC(C)n1nccc1-c1cc(N2CCC[C@@H](NC(=O)c3cccc(N4CCN(C)CC4)n3)C2)c2c(N)ncnn12` [Example 796, (R)-N-(1-(4-amino-7-(1-isopropyl-1H-pyrazol-5-yl)pyrrolo[2,1-f][1,2,4]triazin-5-yl)piperidin-3-yl)-6-(4-methylpiperazin-1-yl)picolinamide], the IC50 was found to be 0.785 µM.
With `CN1CCN(c2cccc(C(=O)N[C@@H]3CCCN(c4cc(-c5ccn(C)c(=O)c5)n5ncnc(N)c45)C3)n2)CC1` [Example 802, (R)-N-(1-(4-amino-7-(1-methyl-2-oxo-1,2-dihydropyridin-4-yl)pyrrolo[2,1-f][1,2,4]triazin-5-yl)piperidin-3-yl)-6-(4-methylpiperazin-1-yl)picolinamide], the half-maximal inhibitory concentration (IC50) turned out to be 0.237 µM.
On to `COc1cc(C(=O)N[C@@H]2CCCN(c3cc(-c4ccc(S(C)(=O)=O)cc4)n4ncnc(N)c34)C2)c(OC)nn1` [Example 67, (R)-N-(1-(4-amino-7-(4-(methylsulfonyl)phenyl)pyrrolo[2,1-f][1,2,4]triazin-5-yl)piperidin-3-yl)-3,6-dimethoxypyridazine-4-carboxamide], for which the IC50 is 0.261 µM.
The same measure for `N#Cc1ccc(-c2cc(N3CCC[C@@H](NC(=O)c4cc5ccccc5o4)C3)c3c(N)ncnn23)cn1` [Example 649]: 0.006 µM.
Take `CC(=O)N1CC=C(c2cc(N3CCCC(NC(=O)c4sc(Cl)cc4OC4CC5CC4CN5C(C)C)C3)c3c(N)ncnn23)C1` (single isomer, unassigned) [Example 611]: the IC50 was determined as 0.007 µM.
The same measure for `Cc1cc(C(=O)N[C@@H]2CCCN(c3cc(-c4ccc(S(C)(=O)=O)cc4)n4ncnc(N)c34)C2)sc1C` [Example 89, (R)-N-(1-(4-amino-7-(4-(methylsulfonyl)phenyl)pyrrolo[2,1-f][1,2,4]triazin-5-yl)piperidin-3-yl)-4,5-dimethylthiophene-2-carboxamide]: 0.006 µM; for `CS(=O)(=O)c1ccc(-c2cc(N3CCC[C@@H](NC(=O)c4cncs4)C3)c3c(N)ncnn23)cc1` [Example 66, (R)-N-(1-(4-amino-7-(4-(methylsulfonyl)phenyl)pyrrolo[2,1-f][1,2,4]triazin-5-yl)piperidin-3-yl)thiazole-5-carboxamide]: 0.039 µM; for `CS(=O)(=O)N1CC=C(c2cc(N3CCC[C@@H](NC(=O)c4ccccc4)C3)c3c(N)ncnn23)C1` [Example 113, (R)—N-(1-(4-amino-7-(1-(methylsulfonyl)-2,5-dihydro-1H-pyrrol-3-yl)pyrrolo[2,1-f][1,2,4]triazin-5-yl)piperidin-3-yl)benzamide, TFA]: 0.023 µM.
Regarding `CC(=O)N1CC=C(c2cc(N3CCC[C@@H](NC(=O)c4cccc(N5CC(S(C)(=O)=O)C5)n4)C3)c3c(N)ncnn23)C1` [Example 764, (R)-N-(1-(7-(1-acetyl-2,5-dihydro-1H-pyrrol-3-yl)-4-aminopyrrolo[2,1-f][1,2,4]triazin-5-yl)piperidin-3-yl)-6-(3-(methylsulfonyl)azetidin-1-yl)picolinamide], the IC50 was determined as 0.062 µM.
Take `CC(=O)N1CC=C(c2cc(N3CCC[C@@H](NC(=O)c4sc(Cl)cc4OCC4CCCN4C)C3)c3c(N)ncnn23)C1` (single isomer, unassigned) [Example 391]: the 50% inhibitory concentration (IC50) turned out to be 0.004 µM.
The same measure for `CN(C)CCOc1cc(Cl)sc1C(=O)N[C@@H]1CCCN(c2cc(C3=CCN(C(=O)C4CC4)C3)n3ncnc(N)c23)C1` [Example 177, (R)-N-(1-(4-amino-7-(1-(cyclopropanecarbonyl)-2,5-dihydro-1H-pyrrol-3-yl)pyrrolo[2,1-f][1,2,4]triazin-5-yl)piperidin-3-yl)-5-chloro-3-(2-(dimethylamino)ethoxy) thiophene-2-carboxamide, 2 TFA]: 0.005 µM; for `CN(C(=O)c1ccccc1)[C@@H]1CCCN(c2cc(-c3ccc(S(C)(=O)=O)cc3)n3ncnc(N)c23)C1` [Example 123, (R)—N-(1-(4-amino-7-(4-(methylsulfonyl)phenyl)pyrrolo[2,1-f][1,2,4]triazin-5-yl)piperidin-3-yl)-N-methylbenzamide]: 0.606 µM.
Take `CS(=O)(=O)c1ccc(-c2cc(N3CCC[C@@H](NC(=O)c4ccsn4)C3)c3c(N)ncnn23)cc1` [Example 62, (R)-N-(1-(4-amino-7-(4-(methylsulfonyl)phenyl)pyrrolo[2,1-f][1,2,4]triazin-5-yl)piperidin-3-yl)isothiazole-3-carboxamide]: the half-maximal inhibitory concentration (IC50) is 0.111 µM.
As to `CS(=O)(=O)c1ccc(-c2cc(N3CCC[C@@H](NC(=O)C4CC5(CCC5)C4)C3)c3c(N)ncnn23)cc1` [Example 29, (R)-N-(1-(4-amino-7-(4-(methylsulfonyl)phenyl)pyrrolo [2,1-f][1,2,4]triazin-5-yl)piperidin-3-yl)spiro[3.3]heptane-2-carboxamide], the half-inhibitory concentration (IC50) stood at 0.181 µM.
Consider `Nc1ncnn2c(C3=CCN(C(=O)c4ccccn4)C3)cc(N3CCC[C@@H](NC(=O)c4ccc(Cl)s4)C3)c12` [Example 900, (R)-N-(1-(4-amino-7-(1-picolinoy1-2,5-dihydro-1H-pyrrol-3-yl)pyrrolo[2,1-f][1,2,4]triazin-5-y1)piperidin-3-y1)-5-chlorothiophene-2-carboxamide], for which the IC50 amounted to 0.012 µM.
With `CCOC1=C(C(=O)N[C@@H]2CCCN(c3cc(C4=CCN(C(C)=O)C4)n4ncnc(N)c34)C2)CN(CC(F)(F)C(F)(F)F)C1=O` [Example 748, (R)-N-(1-(7-(1-acetyl-2,5-dihydro-1H-pyrrol-3-yl)-4-aminopyrrolo[2,1-f][1,2,4]triazin-5-yl)piperidin-3-yl)~4-ethoxy-5-oxo-1-(2,2,3,3,3-pentafluoropropyl)-2,5-dihydro-1H-pyrrole-3-carboxamide], the IC50 was 0.318 µM.
On to `COC(=O)N1CC=C(c2cc(N3CCC[C@@H](NC(=O)c4ccc(Cl)s4)C3)c3c(N)ncnn23)C1` [Example 138, methyl (R)-3-(4-amino-5-(3-(5-chlorothiophene-2-carboxamido)piperidin-1-yl)pyrrolo[2,1-f][1,2,4]triazin-7-yl)-2,5-dihydro-1H-pyrrole-1-carboxylate, TFA], for which the half-inhibitory concentration (IC50) turned out to be 0.007 µM.
Regarding `CN(C)CCOc1cc(Cl)sc1C(=O)N[C@@H]1CCCN(c2cc(-c3ccc(C=O)cc3)n3ncnc(N)c23)C1` [Example 276, (R)—N-(1-(4-amino-7-(4-formylphenyl)pyrrolo[2,1-f][1,2,4]triazin-5-yl)piperidin-3-yl)-5-chloro-3-(2-(dimethylamino)ethoxy)thiophene-2-carboxamide], the IC50 came out at 0.001 µM.
Regarding `Nc1ncnn2c(C3=CCN(C(=O)[C@H]4CCCN4)C3)cc(N3CCC[C@@H](NC(=O)c4ccc(Cl)s4)C3)c12` [Example 889, N-((R)-1-(7-(1-(D-proly1)-2,5-dihydro-1H-pyrrol-3-y1)-4-aminopyrrolo[2,1-f][1,2,4]triazin-5-yl)piperidin-3-y1)-5-chlorothiopbene-2-carboxamide, TFA], the IC50 amounted to 0.021 µM.
Turning to `CC(=O)N1CC=C(c2cc(N3CCC[C@@H](NC(=O)c4sc(Cl)cc4OC4CCCN(C)C4)C3)c3c(N)ncnn23)C1` (single isomer, unassigned) [Example 595], the IC50 came out at 0.037 µM.
The same measure for `Cc1ccc(C(=O)N[C@@H]2CCCN(c3cc(C4=CN(S(C)(=O)=O)CC4)n4ncnc(N)c34)C2)s1` [Example 125]: 0.027 µM; for `COC(=O)N1CC=C(c2cc(N3CCC[C@@H](NC(=O)c4n[nH]c5ccc(C#N)cc45)C3)c3c(N)ncnn23)C1` [Example 684, methyl (R)-3-(4-amino-5-(3-(5-cyano-1H-indazole-3-carboxamido)piperidin-1-yl)pyrrolo[2,1-f][1,2,4]triazin-7-yl)-2,5-dihydro-1H-pyrrole-1-carboxylate]: 0.261 µM; for `COC(C(=O)N1CC=C(c2cc(N3CCC[C@@H](NC(=O)c4sc(Cl)cc4OCCN4CCOCC4)C3)c3c(N)ncnn23)C1)C1CC1` (stereo partly drawn) [Example 260, N-((3R)-1-(4-amino-7-(1-(2-cyclopropyl-2-methoxyacetyl)-2,5-dihydro-1H-pyrrol-3-yl)pyrrolo[2,1-f] [1,2,4]triazin-5-yl)piperidin-3-yl)-5-chloro-3-(2-morpholinoethoxy)thiophene-2-carboxamide]: 0.048 µM.
`CC(=O)N1CC=C(c2cc(N3CCC[C@@H](NC(=O)c4cccc(N5CCC(C)(O)CC5)n4)C3)c3c(N)ncnn23)C1` [Example 772, (R)-N-(1-(7-(1-acetyl-2,5-dihydro-1H-pyrrol-3-yl)-4-aminopyrrolo[2,1-f][1,2,4]triazin-5-yl)piperidin-3-yl)-6-(4-hydroxy-4-methylpiperidin-1-yl)picolinamide]: the IC50 came out at 0.072 µM.
For the compound `N#Cc1ncn(-c2ccc(-c3cc(N4CCC[C@@H](NC(=O)c5ccc(Cl)s5)C4)c4c(N)ncnn34)cn2)n1` [Example 250, (R)-N-(1-(4-amino-7-(6-(3-cyano-1H-1,2,4-triazol-1-yl)pyridin-3-yl)pyrrolo[2,1-f][1,2,4]triazin-5-yl)piperidin-3-yl)-5-chlorothiophone-2-carboxamide, TFA], the half-maximal inhibitory concentration (IC50) was determined as 0.003 µM.
On to `COC(=O)N1CC=C(c2cc(N3CCC[C@@H](NC(=O)c4sc(C(F)F)cc4OCCNC(C)=O)C3)c3c(N)ncnn23)C1` [Example 423, Methyl (R)-3-(5-(3-(3-(2-acetamidoethoxy)-5-(difluoromethyl)thiophene-2-carboxamido)piperidin-1-yl)-4-aminopyrrolo[2,1-f][1,2,4]triazin-7-yl)-2,5-dihydro-1H-pyrrole-1-carboxylate], for which the half-inhibitory concentration (IC50) stood at 0.03 µM.

Source of the values: patent publication US20260250290A1 (BRISTOL-MYERS SQUIBB COMPANY, priority 2023, published 2026).
